For one assay, the system named is base paired control RNA. Description: MST binding to base paired control RNA (A bulge mutated to AU pair). The conditions noted are these: microscale thermophoresis. How it is done: (§1) Microscale thermophoresis study of binding. Binding constants were measured by MST using premium capillaries (Nanotemper) using serial dilations of compound from 50 μM to 1 nM in 1:2 dilutions. RNA-Cy5-155-A (20 nM) or Cy5-155-AU (20 nM), Cy5-155-C(20 nM), and Cy5-155-GC (20 nM) were annealed in 2×DNA buffer by heating at 70° C. with cooling to room temperature on the bench. Then the 2× compound and 2× RNA solutions were mixed together in a 1:1 ratio and allowed to equilibrate at room temperature for 10 min. Then, the capillaries were loaded and run on a […] under previously described conditions.^14 MST power was set to 40% and the LED power was set to 3%.

Assay [1] deals with pre-miR-155. Nature of the assay: RT-qPCR of pre-miR-155 levels in HUVECs. Type of assay: cell-based, human. How it is done: (§2) Tissue Culture. MDA-MB-231 cells were obtained from ATCC (HTB-26) and cultured in RPMI medium with […] & 25 mM HEPES (Corning) supplemented with 10% FBS (sigma). MCF-10a cells were obtained from ATCC(CRL-10317) and cultured in DMEM/F12 50/50 with glutamine and 15 mM HEPES(Corning) containing 20% FBS(Sigma), 1×Antibiotic-Antimycotic(Corning), 20 ng/mL of human epidermal growth factor(Pepro Tech Inc.), 100 μg/mL of insulin and […] of hydrocortisone (Pfizer &Bauer). HUVECs were cultured in EGM (Lonza) made using the EGM-2 bullet kit (Lonza) per the manufacturers protocol.
(§3) RT-qPCR analysis for Mature, Primary and Precursor miRNAs and mRNA levels. After compound treatment for the indicated time (MDA-MB-231 48 h and HUVECs 24 h), total RNA was extracted using the Zymo Quick-RNA mini prep kit according to the manufacturers protocol. Reverse Transcription (RT) for microRNAs and pri- and pre-miR-155 were done on 200 ng of RNA using the miScript II RT kit (Qiagen) according to the manufacturer's protocol. The mRNAs were done using QScript (Quanta Bio) on 200 ng of total RNA according to the manufacturer's protocol. RT-qPCR was done as mentioned above. The obtained data was analyzed by using the ΔΔCt method as described previously. For the washout experiment, MDA-MB-231 cells were treated with 3 for 48 h. Then the media was changed with fresh growth medium without compound and the cells incubated for 12, 24 and 36 h with RNA harvested and pre-miR-155 levels analyzed as described above.
On the technique in general: Quantitative PCR measures a nucleic acid by following its amplification.

The test system of assay [2] is miR-155. Description: RT-qPCR of miR-155 levels in HUVECs. It is filed as cell-based, human. How it is done: as §2, §3
Assay [3] deals with pre-miR-155. Nature of the assay: Chem-CLIP and competitive Chem-CLIP of pre-miR-155 in MDA-MB-231 cells. It is filed as cell-based, human. The conditions noted are these: for enrichment of pre-miR-155 in pulled down fractions (Chem-CLIP): 1×10^−7 M (100 nM). How it is done:
Cellular Chem-CLIP and Competitive-Chem-CLIP of pre-miR-155. MDA-MB-231 cells at 80% confluency in 100 mm dish were treated with Chem-CLIP probe at the indicated concentration overnight. Then cells were washed with DPBS and harvested by scrapping. Total RNA was extracted by using the miRNeasy mini kit (Qiagen) according to the manufacture's protocol. Then, 50 g of total RNA was treated to 150 L of Dynabeads MyOne Streptavidin C1 (Invitrogen) slurry in 500 L of 1×DNA buffer (8.0 mM Na2PO4, 185 mM NaCl, pH=7.0) and shaked for 6 h. The beads then captured on a Magnetic rack and washed with DPBS for 4 times. The bound RNA was then cleaved from beads in 150 μL of 95% formamide with 10 mM EDTA at 95° C. for 30 min. Released RNA was then cleaned up by Zymo Quick-RNA MiniPrep kit per the manufacture's protocol. RT-qPCR was carried out on pre-miR-155 as previously described above by using 10 ng of input cDNA from before and after pulldown RNA samples. Enrichment of pre-miR-155 was calculated as previously reported^15. Competitive Chem-CLIP was completed by pre-treating MDA-MB-231 cells with compound B for 2 h followed by dosing of Chem-CLIP at 100 nM overnight. Sample preparation and data analysis were performed as for Chem-CLIP.

Assay [4] deals with miR-155. Description: RT-qPCR of mature miR-155 levels in MDA-MB-231 cells. Type of assay: cell-based, human. The conditions noted are these: 48 h. How it is done: as §2, §3
(§4) RT-qPCR analysis for Mature, Primary and Precursor miRNAs and mRNA levels part. Relative RNA expression was determined by using ΔΔCt method with 18S rRNA as an internal control. Normalized fold change was calculated with the equation as below: […]

Assay [5] concerns pre-miR-155's C-bulge (5′UCG/3′A_U). Nature of the assay: MST binding to pre-miR-155 C bulge. Set-up: species or system human. To be noted: microscale thermophoresis. How it is done:
as §1
A general note: In MST a laser heats a spot of the sample, and binding alters the fluorescence response.

Assay [6] has as its system pre-miR-155. Nature of the assay: RT-qPCR of pre-miR-155 levels in MDA-MB-231 cells. It is filed as cell-based, human. To be noted: MDA-MB-231 cells. How it is done: as §2, §3, §4
The test system of the next assay is GC paired control. Description: MST binding to GC paired control. To be noted: microscale thermophoresis. How it is done: as §1
Assay [7] addresses pre-miR-155's 5′GAU/3′C_A bulge. Nature of the assay: Microscale thermophoresis (MST) binding to pre-miR-155 A bulge. The arrangement: species or system human. How it is done: as §1
The subject of assay [8] is pre-miR-155. Nature of the assay: In vitro RNase L cleavage assay of pre-miR-155. Type of assay: biochemical, human. How it is done:
pre-miR-155 was then incubated with compound 3 in vitro in an RNase L cleavage assay.
PCR amplification and transcription of DNA templates. PCR amplification of DNA templates of pre-miR-155 and mutants were performed using the pre-miR-155 forward primer containing T7 RNA polymerase promoter and a reverse primer common to both the pre-miR-155 Wild type and Mutant templates. The sequence of Oligonucleotides used in this study can be found in Table 4. PCR amplification was carried out in 350 μL of 1× PCR buffer (10 mM Tris-HCl, pH 9.0, 50 mM KCl, and 0.1% (v/v) Triton X-100), 0.33 mM dNTPs, 4.25 mM MgCl2, 2 μM of each primer(100 μM), and 1.7 μL of Taq DNA polymerase. Thermocycling was done for 35 cycles at 95° C. for 30 s, 55° C. for 30 s, and 72° C. for 60 s. PCR products were confirmed by a 2.5% Agarose Gel stained with ethidium bromide before in vitro transcription. In vitro RNA transcription for the target RNAs were carried out using house made reagents as described previously.^11

The next assay relates to 3×3 ILL. Nature of the assay: 2DCS with HiT-StARTS fitness ranking of bound RNA motifs. Type of assay: binding. How it is done: 2DCS: Primary Screening. The microarrays were constructed as previously described.^10 Microarrays were by coating glass plates with 25 mL of molten 1% agarose and allowing it to set for 2 h. After setting, the plates were pinned with compound using a Biomek® NX robotic pintool, pinning 100 nL of each compound. The array was dried in a fume hood overnight and then washed in 1× FB supplemented with 0.1% (v/v) Tween-20 and then Nano pure water two times each followed by air drying on the bench top. Once dried, 200 pmol of radiolabeled 3×3 ILL was added to 0.5 mL of 1× FB and folded by heating to 95° C. for 1 min and then cooling to room temperature slowly on the benchtop. Magnesium chloride was added after cooling. Once cooled the solution was brought to a volume of 2.5 mL with 1× FB. The microarrays were pre-hybridized with 1× HB for 5 min and the excess buffer was removed by touching the edge with a Kimwipe. The arrays were then Hybridized with the RNA for 30 min, spreading the solution evenly over the surface with parafilm. After hybridization, the array was washed four times with 1× HB followed by air drying and imaging by autoradiography. Hits were identified as signals with an intensity greater than 3-fold over background radiation on the array. Positive control compounds Mitoxantrone was present on all arrays.
2DCS: tRNA Counter Screen. To remove non-specific RNA binders hits identified above were subjected to competitive screening with cold yeast tRNA. The assay was carried out as previously described.^10 Briefly, arrays were constructed on Inkjet Superfrost microscope slides (Fisher) by applying 2 mL of molten 1% agarose onto each slide and curing them for 2 h. Once cured, 200 nL of each compound was spotted onto each plate and the plates dried overnight as previously described. After drying, the slides were washed three times for 5 min each with nano pure water and dried under a stream of compressed air. The slides were then pre-hybridized with 1× HB for 5 min, and then incubated with 100 pmol of folded hot RNA and tRNA (1× relative to the total moles of compound spotted) in 0.4 mL of 1× FB for 30 min. The slides were then washed with 1× HB five times, air dried, and imaged to identify library specific binders. […]
In these equations n1 is the observed reads for all selected RNAs in the RNA-seq data; n2 is the total reads observed for the starting library; p1 is the proportion of the reads for a particular sequence to the total reads in the selected library; p2 is the proportion of the reads for a particular sequence to the total reads of the starting library. We can then use Zobs to rank each sequence, and therefore each RNA motif, by its affinity or fitness which is calculated according to equation (5) below described previously:^10 […]

“And” between values parts separate entries of the source, which are not always exact repeats. Identical values can stand only once. “Also recorded” adds a separate entry of the source.

The term IC50 denotes the concentration that inhibits the measured activity by half. Broadly, the Kd is a measure of binding affinity in units of concentration. Low values mean a tighter complex, high ones a looser complex. With `CCCCCCCCCCCc1c(CCCCCCCCCCC)[n+](-c2c(C(C)C)cccc2C(C)C)cn1-c1c(C(C)C)cccc1C(C)C` [Compound 1], the “binding to base paired control RNA” value in the assay on base paired control RNA is on record as “no binding; also recorded: Neither molecule showed significant binding”. The “effect on pre-miR-155 levels” value in the assay with pre-miR-155 [1] is given as “no effect”. For the same compound, the “competition of cleavage by 3” value in the assay on pre-miR-155 [1] (3 at 1×10^−8 M, 1 at 1×10^−7 and 1×10^−6 M) is reported as “dose dependently reduced cleavage”. Also, the “effect on miR-155 levels” value with miR-155 [2] is “no effect”. Also, the IC50 with pre-miR-155 [3] (Homo sapiens, 6 held constant at 1×10^−7 M, read-out: IC50 of reduction of pre-miR-155 enrichment (C-Chem-CLIP)) was 100 nM. Moreover, in the assay on miR-155 [4], the “effect on miR-155 levels / miR-155 biogenesis” value is “no effect; also recorded: unable to inhibit”. Besides, the “binding to C bulge” value in assay [5] is reported as “Neither compound (1 or 2) had any affinity; also recorded: Neither molecule showed significant binding”. Also, in the assay with pre-miR-155 [6] (co-treated with 3 at 1×10^−7 M, mature, pre- and pri-miR-155), the “concentration of 1 giving complete ablation of cleavage by 3” value is 1000 nM. Moreover, in the assay with GC paired control, the “binding to GC paired control” value is “Neither compound (1 or 2) had any affinity”. Also, in assay [7], the Kd was 490 ± 122 nM.
With `CCCNC(=O)CCc1c(C)n(-c2c(C(C)C)cccc2C(C)C)c[n+]1-c1c(C(C)C)cccc1C(C)C` [Compound 2], the “binding to base paired control RNA” value in the assay on base paired control RNA was “no affinity; also recorded: ablated binding; also recorded: Neither molecule showed significant binding”. Moreover, in the assay on miR-155 [4], the “effect on miR-155 levels / miR-155 biogenesis” value is reported as “no effect”. In addition, in [5], the “binding to C bulge” value is on record as “Neither compound (1 or 2) had any affinity; also recorded: Neither molecule showed significant binding”. In the assay with pre-miR-155 [6], the “effect on pre-miR-155 levels” value is recorded as “no effect”. The “binding to GC paired control” value with GC paired control is on record as “Neither compound (1 or 2) had any affinity”. The compound also showed a Kd in assay [7] of 552 ± 120 nM.
In the case of `CCOC(=O)C1=C(Nc2ccccc2)S/C(=C\c2ccc(OCCOCCOCCOCCNC(C)=O)c(O)c2)C1=O` [Compound 4], the “cleavage of pre-miR-155” value in the assay with pre-miR-155 [8] is on record as “no significant cleavage; also recorded: unable to cleave”. In addition, in the assay with miR-155 [4], the “effect on miR-155 levels / miR-155 biogenesis” value is given as “no effect; also recorded: does not affect”.
`Cc1c(CCC(=O)NCCCC[C@H](NC(=O)CCCc2ccc(N(CCCl)CCCl)cc2)C(=O)NCCNC(=O)CCCCC2SCC3NC(=O)NC32)[n+](-c2c(C(C)C)cccc2C(C)C)cn1-c1c(C(C)C)cccc1C(C)C` (stereo partly drawn) [Compound 6]: in the assay on pre-miR-155 [3], the “enrichment of pre-miR-155 in pulled down fractions (Chem-CLIP)” value is 4 fold and 7 fold.
Still for that read-out and setting: the entry for `CC(=O)NCCCC[C@H](NC(=O)CCCc1ccc(N(CCCl)CCCl)cc1)C(=O)NCCNC(=O)CCCCC1SCC2NC(=O)NC21` (stereo partly drawn) [Compound 7] is “no enrichment; also recorded: unable to pull down”.
On to `CCCCCCCCCCCc1c(CCCCCCCCCCC)[n+](C)c(CCCO)n1C` [Compound C7], for which, in the assay on 3×3 ILL, the “Fitness Score of the next motif” value stood at 46% and the “fitness score of highest affinity interaction, alternating (AU)(UA) pairs” value came to 100%.
On the same counts, the results for `Cc1cc(C)c(-n2c[n+](-c3c(C)cc(C)cc3C)c3c2C[C@@]2(C)[C@@H](CC[C@@H]4[C@@H]2CC[C@]2(C)[C@@H]([C@H](C)CCCC(C)C)CC[C@@H]42)C3)c(C)c1` [Compound C11] are 56% and 100%.

The values above are taken from US20250339542A1, “CONVERSION OF A BIOLOGICALLY SILENT MIRNA BINDING SMALL MOLECULE TO AN MIRNA DEGRADER” (University of Florida Research Foundation, Incorporated, priority 2020, published 2025).
